Assay [1] concerns the target T1, YAP-TEAD interaction (full length human TEAD1-Gal4 fusion, full length YAP mutant S127A, S397A) (UniProt P04386+P28347).
T1 construct: The TEAD1 construct was prepared by cloning the full length human TEAD1 cDNA; expressed in transfected cells; host or cells: HEK293 GripTite 293 MSR (Invitrogen R795-07), transiently transfected with pSG5_CMV plasmids
The assay can be described thus: Cell-based TEAD-GAL4 transactivation assay (luciferase reporter, HEK293). The settings on record: HEK293 cells, compounds 0.1 μM to 30 μM, 24 h, concentration that inhibited the luciferase activity by 50%. The essentials: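 HEK293 cells transiently transfected with Gal4-DBD–full-length human TEAD1, full-length YAP S127A/S397A and a 5×GAL4-RE–TK luciferase reporter (YAP/TEAD 10:1); p53–Gal4/SV40 large T pair as counter-screen. Compounds 0.1–30 µM semi-log, added 6 h post-transfection for 24 h; IC50 from 3-parameter fit of luminescence.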
Background: In a reporter assay the amount or activity of a reporter protein is the signal.

A further assay concerns Met5A cell line. The assay can be described thus: Cell proliferation in YAP-independent cell line (EdU). In kind it is cell-based. The settings on record: FIG. 1. Here is the method:
(§1) The tumor cell growth inhibitory activity of the YAP-TEAD interaction inhibitors was evaluated in NCI-H2052 mesothelioma cell line harboring a NF2 mutation. This cell line was selected based on its mutational status and the ability of a siRNA directed against YAP, TAZ or TEAD1-4 to inhibit cell proliferation. The nuclear localization of YAP at confluence was also taken into account. Based on these observations we were able to classify several “YAP dependent cells” where YAP is clearly nuclear and in which a cell growth inhibition is observed by using siRNA (NCI-H2052, SKOV-3, ACHN, A549) and the “YAP independent cells” where YAP is preferentially located in the cytoplasm and in which no inhibition of cell growth is observed by using a siRNA (SW620, Met-5a). […] After one day growth in the starvation medium, cells were incubated with compounds. The starting concentration was 30 μM and serial dilutions in DMSO and medium were performed until 0.1 μM to achieve a final DMSO concentration of 0.5%. The cells were then allowed to grow for 3 days, and then, EdU (Invitrogen, Molecular Probe) was added in each well at a final concentration of 10 μM and the cells were returned to the incubator for additional 24 h. Starvation medium was removed and 100 μl of PFA 4% containing Hoechst dye was adding in each well to fix the cells. Plates were then incubated at rt for 15 minutes, washed twice with PBS and the cells were permeabilized by adding 100 μl per well of triton-100 containing 0.3% BSA. After 20 minutes cells were washed with PBS and the EdU detection was performed according to the instructions of the manufacturer. Image acquisition was performed using the ImageXpress Micro and analysed using the MetaXpress software (Molecular Device).
(§2) Results were expressed as a percent of inhibition (%) of the cell proliferation values obtained with 0.5% DMSO treatment alone. The cellular response was determined by fitting the concentration response curves using a 3 parameter curve fit equation and determining the concentration that inhibited cell growth between 50% and 100%.

Assay [2] deals with NCI-H2052 mesothelioma cell line. The assay can be described thus: Inhibition of malignant mesothelioma tumor cell growth (EdU proliferation). The settings on record: NF2 mutated cell line, 0.1-30 μM, FIG. 1. In kind it is cell-based. The procedure: as §1, §2

SMILES strings stand for the structures.

T1 sequence (P04386+P28347 fused, stated change not applied): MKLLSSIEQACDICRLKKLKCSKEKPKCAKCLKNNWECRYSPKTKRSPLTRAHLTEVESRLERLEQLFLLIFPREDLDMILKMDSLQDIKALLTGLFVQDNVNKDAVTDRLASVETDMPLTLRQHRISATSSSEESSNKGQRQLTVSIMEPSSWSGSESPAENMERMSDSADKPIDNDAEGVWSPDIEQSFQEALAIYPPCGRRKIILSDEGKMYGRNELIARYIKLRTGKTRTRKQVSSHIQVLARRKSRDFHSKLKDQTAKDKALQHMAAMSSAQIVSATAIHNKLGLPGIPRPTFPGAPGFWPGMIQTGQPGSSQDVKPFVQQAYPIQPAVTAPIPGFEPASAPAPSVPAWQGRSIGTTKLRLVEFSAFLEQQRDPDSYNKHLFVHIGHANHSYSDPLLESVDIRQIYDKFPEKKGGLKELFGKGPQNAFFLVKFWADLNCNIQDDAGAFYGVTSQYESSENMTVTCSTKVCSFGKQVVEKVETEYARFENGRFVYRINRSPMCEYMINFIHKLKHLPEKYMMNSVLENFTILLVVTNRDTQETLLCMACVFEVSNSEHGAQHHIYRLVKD

On to `COc1cc(/C=N/N(C)C2=NS(=O)(=O)c3cc(B(O)O)ccc32)ccc1F` [Ex 50, [3-[[(E)-(4-fluoro-3-methoxy-phenyl)methyleneamino]-methyl-amino]-1,1-dioxo-1,2-benzothiazol-6-yl]boronic acid], for which, in assay [1], the IC50 came to 3.03 µM. Also, the “effect on proliferation of Met5A cell line” value in the assay on Met5A cell line is “without showing any effect”. In assay [2], the “NCI-H2052 mesothelioma cell proliferation” value is “inhibited NCI-H2052 mesothelioma cell proliferation”.
The like results for `COc1cc(/C=N/N(C)C2=NS(=O)(=O)c3cc(B4OC(=O)CN(C)CC(=O)O4)ccc32)ccc1F` [Ex 68, 2-[3-[[(E)-(4-fluoro-3-methoxy-phenyl)methyleneamino]-methyl-amino]-1,1-dioxo-1,2-benzothiazol-6-yl]-6-methyl-1,3,6,2-dioxazaborocane-4,8-dione] were, in that order, 4.5 µM, “without showing any effect” and “inhibited NCI-H2052 mesothelioma cell proliferation”.
The compound `CN(/N=C/c1ccc2[nH]c(=O)n(C3CCC3)c2c1)C1=NS(=O)(=O)c2ccccc21` [Ex 28, 3-cyclobutyl-5-[(E)-[(1,1-dioxo-1,2-benzothiazol-3-yl)-methyl-hydrazono]methyl]-1H-benzimidazol-2-one] yielded an IC50 in assay [1] of 3.06 µM. Besides, in the assay on Met5A cell line, the “effect on proliferation of Met5A cell line” value is “without showing any effect”. Besides, in assay [2], the “NCI-H2052 mesothelioma cell proliferation” value is “inhibited NCI-H2052 mesothelioma cell proliferation”.

The IC50 is the concentration at which inhibition is half-maximal. A higher IC50 goes with lower potency.

For the origin of these results see US20200115353A1, “NEW COMPOUNDS INHIBITORS OF THE YAP/TAZ-TEAD INTERACTION AND THEIR USE IN THE TREATMENT OF MALIGNANT MESOTHELIOMA” (INVENTIVA, priority 2017, published 2020).
